Assay results: PMC5037267, “Crystal Structure of a Group I Energy Coupling Factor Vitamin Transporter S Component in Complex with Its Cognate Substrate” (Cell Chemical Biology, 2016)
Numbering of substitutions follows the chain as printed.

Columns and labels:
Type in all cases: binding
YkoE [1] = target: T1, YkoE (Bacillus subtilis, UniProt O34738, Y46A); experiment: intrinsic Trp fluorescence quenching titration
T1 construct: isolated S component without YkoC/YkoD; N-terminal His6 tag cut by TEV; E. coli Lemo21; n-decyl-beta-D-maltopyranoside; four N-terminal residues not seen in crystal
T1 sequence (O34738 1-199 Y46A limits assumed): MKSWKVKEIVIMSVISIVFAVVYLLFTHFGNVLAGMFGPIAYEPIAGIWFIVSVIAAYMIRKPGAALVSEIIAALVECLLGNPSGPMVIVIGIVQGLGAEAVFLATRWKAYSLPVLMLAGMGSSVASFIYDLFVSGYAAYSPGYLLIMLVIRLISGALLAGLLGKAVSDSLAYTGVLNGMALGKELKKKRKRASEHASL

YkoE [2] = target: T2, YkoE (Bacillus subtilis, UniProt O34738, E77A); experiment: intrinsic Trp fluorescence quenching titration
T2 construct: isolated S component without YkoC/YkoD; N-terminal His6 tag cut by TEV; E. coli Lemo21; n-decyl-beta-D-maltopyranoside; four N-terminal residues not seen in crystal
T2 sequence (O34738 1-199 E77A limits assumed): T1 sequence (O34738 1-199 Y46A limits assumed) with A46Y, E77A

YkoE [3] = target: T3, YkoE (Bacillus subtilis, UniProt O34738); experiment: intrinsic Trp fluorescence quenching titration
T3 construct: isolated S component without YkoC/YkoD; N-terminal His6 tag cut by TEV; E. coli Lemo21; n-decyl-beta-D-maltopyranoside; four N-terminal residues not seen in crystal
T3 sequence (O34738 1-199 limits assumed): T1 sequence (O34738 1-199 Y46A limits assumed) with A46Y

YkoE [4] = target: T4, YkoE (Bacillus subtilis, UniProt O34738, Q95A); experiment: intrinsic Trp fluorescence quenching titration
T4 construct: isolated S component without YkoC/YkoD; N-terminal His6 tag cut by TEV; E. coli Lemo21; n-decyl-beta-D-maltopyranoside; four N-terminal residues not seen in crystal
T4 sequence (O34738 1-199 Q95A limits assumed): T1 sequence (O34738 1-199 Y46A limits assumed) with A46Y, Q95A
From the text: intrinsic Trp fluorescence quenching titration on YkoE | with the Q95A mutation showing the largest effect on affinity

YkoE [5] = target: T3, YkoE; experiment: CD thermal melting at […] nm; settings: YkoE from M9 medium plus excess thiamine; reference without added thiamine 68 °C; pH 7.1, 200 mM NaCl; 1 °C/min
YkoE [6] = target: T5, YkoE (Bacillus subtilis, UniProt O34738, D131A); experiment: intrinsic Trp fluorescence quenching titration
T5 construct: isolated S component without YkoC/YkoD; N-terminal His6 tag cut by TEV; E. coli Lemo21; n-decyl-beta-D-maltopyranoside; four N-terminal residues not seen in crystal
T5 sequence (O34738 1-199 D131A limits assumed): T1 sequence (O34738 1-199 Y46A limits assumed) with A46Y, D131A

## Cc1ncc(C[n+]2csc(CCO)c2C)c(N)n1 [thiamine]
YkoE [1]
  Kd: 10.3 ± 0.8 nM
YkoE [2]
  Kd: 9.3 ± 0.6 nM
YkoE [3]
  Kd: ~4.5 nM
YkoE [4]
  Kd: 26.9 ± 1.6 nM
YkoE [5]
  Tm: 75 °C
YkoE [6]
  Kd: 9.4 ± 0.9 nM
